# Like-named read-outs stand apart in the source and are kept apart here.
# Experiments:
# PI3Kβ = PI3Kβ (Homo sapiens, UniProt P42338); experiment: In vitro enzyme inhibition assay (Kinase Glo), PI3Kβ; assay type: biochemical
# Method: (§1) (a) In Vitro Enzyme Inhibition Assay
# (§2) The inhibition of PI3Kβ, PI3Kα, PI3Kγ and PI3Kδ was evaluated in a Kinase Glo based enzyme activity assay using human recombinant enzymes. The assay measures depletion of ATP after incubation with enzyme, PIP2 and ATP plus compound. ATP at the end of the reaction is detected by addition of Kinase Glo reagent, in this the Ultra Glo™ luciferase (Promega) uses the ATP as a substrate to catalyze the mono-oxygenation of luciferin and the generation of light. A direct relationship exists between the luminescence measured with the Kinase-Glo Plus Reagent and the amount of ATP remaining in a completed kinase reaction and luminescence is inversely related to kinase activity. Twelve different compound concentrations were tested and raw data from the inhibition of PI3Kβ, PI3Kα, PI3Kγ and PI3Kδ was plotted versus inhibitor concentration.
# (§3) Compounds in 100% DMSO were added to assay plates by acoustic dispensing. PI3β was added in a Tris buffer (50 mM Tris pH7.4, 0.05% CHAPS, 2.1 mM DTT, and 10 mM MgCl2) and allowed to preincubate with compound for 20 min prior to addition of substrate solution containing PIP2 and ATP. The enzyme reaction was stopped after 80 min by the addition of Kinase Glo detection solution. […] The final concentration of DMSO, ATP and PIP2 in the assay were, 1%, 8 μM, and 80 μM respectively.
# (§4) IC50 values were calculated using a log curve fitting to a non-linear regression package, fitting raw data to inhibitor concentration.
# PI3Kδ = PI3Kδ (Homo sapiens, UniProt O00329); experiment: In vitro enzyme inhibition assay (Kinase Glo), PI3Kδ; assay type: biochemical; conditions: Test (a)
# PI3Kδ, sequence (O00329 whole entry): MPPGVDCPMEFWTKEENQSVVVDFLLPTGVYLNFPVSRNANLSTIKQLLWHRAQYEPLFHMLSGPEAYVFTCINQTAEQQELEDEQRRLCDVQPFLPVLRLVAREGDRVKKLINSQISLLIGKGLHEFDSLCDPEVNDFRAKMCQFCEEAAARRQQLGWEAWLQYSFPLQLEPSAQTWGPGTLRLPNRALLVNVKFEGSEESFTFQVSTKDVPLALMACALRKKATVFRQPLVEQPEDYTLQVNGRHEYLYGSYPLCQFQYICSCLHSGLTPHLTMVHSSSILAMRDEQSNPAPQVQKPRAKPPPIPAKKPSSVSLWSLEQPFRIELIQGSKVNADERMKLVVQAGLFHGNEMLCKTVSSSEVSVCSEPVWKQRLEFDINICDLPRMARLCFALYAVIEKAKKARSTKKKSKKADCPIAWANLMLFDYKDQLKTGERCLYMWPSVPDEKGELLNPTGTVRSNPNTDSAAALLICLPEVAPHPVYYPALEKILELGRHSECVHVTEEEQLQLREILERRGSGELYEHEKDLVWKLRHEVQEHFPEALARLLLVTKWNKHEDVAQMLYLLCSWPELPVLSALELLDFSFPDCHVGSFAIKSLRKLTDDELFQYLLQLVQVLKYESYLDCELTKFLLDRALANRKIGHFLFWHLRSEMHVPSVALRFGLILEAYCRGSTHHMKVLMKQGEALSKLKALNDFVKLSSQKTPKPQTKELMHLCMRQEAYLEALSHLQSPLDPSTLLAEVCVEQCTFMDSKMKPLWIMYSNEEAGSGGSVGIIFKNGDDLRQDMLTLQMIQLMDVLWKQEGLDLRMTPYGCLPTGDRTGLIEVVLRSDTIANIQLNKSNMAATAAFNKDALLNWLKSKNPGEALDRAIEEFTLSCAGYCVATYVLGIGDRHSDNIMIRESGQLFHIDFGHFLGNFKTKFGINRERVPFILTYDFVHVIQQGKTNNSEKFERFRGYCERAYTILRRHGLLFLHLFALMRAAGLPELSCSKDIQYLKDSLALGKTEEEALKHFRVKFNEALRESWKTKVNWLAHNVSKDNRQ
# PI3Kδ, sequence (P27986 whole entry partner): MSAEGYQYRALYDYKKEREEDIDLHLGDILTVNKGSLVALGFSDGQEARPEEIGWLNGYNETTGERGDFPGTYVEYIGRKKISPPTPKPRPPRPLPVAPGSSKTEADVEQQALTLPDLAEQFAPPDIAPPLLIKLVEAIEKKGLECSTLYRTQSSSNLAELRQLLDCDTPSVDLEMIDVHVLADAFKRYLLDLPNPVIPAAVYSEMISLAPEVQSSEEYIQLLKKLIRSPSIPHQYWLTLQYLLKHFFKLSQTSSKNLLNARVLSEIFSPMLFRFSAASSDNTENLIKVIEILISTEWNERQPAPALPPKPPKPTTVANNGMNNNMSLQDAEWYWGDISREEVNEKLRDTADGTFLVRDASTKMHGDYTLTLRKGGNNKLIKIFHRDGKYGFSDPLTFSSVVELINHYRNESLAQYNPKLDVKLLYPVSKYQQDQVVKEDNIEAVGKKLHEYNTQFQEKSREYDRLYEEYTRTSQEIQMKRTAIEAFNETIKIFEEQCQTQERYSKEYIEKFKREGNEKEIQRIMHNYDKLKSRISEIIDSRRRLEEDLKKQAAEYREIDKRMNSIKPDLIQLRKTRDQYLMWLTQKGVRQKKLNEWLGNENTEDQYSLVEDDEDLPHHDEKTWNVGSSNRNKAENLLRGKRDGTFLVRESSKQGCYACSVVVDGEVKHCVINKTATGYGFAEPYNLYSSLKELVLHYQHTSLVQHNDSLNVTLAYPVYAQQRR
# Method: as §1, §2, §3, §4
# [1] = tested on: phospho AKT (ser473) in MDA-MB-468 cells; experiment: Detection of phospho AKT (ser473) in MDA-MB-468 cells; assay type: cell-based; conditions: Homo sapiens, Test (b), 2 hours incubation, approximate value, read-out: IC50 versus cellular phospho AKT (ser473) in MDA-MB-468 cells
# Method: (b) Protocol for Detection of Phospho AKT (ser473) in MDA-MB-468 Cells
# MDA-MB-468 cells (human breast adenocarcinoma ATCC HTB 132) are seeded into Greiner 384 well black flat-bottomed plates by automated cell culture robot (Selec T). Cells can also be maintained manually and seeded into plates using multidrop or Wellmate. Cells seeded at 1500 cell/well in 40 μl of DMEN containing 10% FCS and 1% glutamine. Cell plates are incubated for 18 hours in a 37° C. incubator.
# Compounds are dosed onto cells using an Echo acoustic dispenser, which dispenses nl quantities of compound or DMSO. Compounds are dosed in a 12 point concentration range from 30 μM top dose, 28 compounds are dosed on one plate. There are 17 DMSO only positive control wells per plate, and 16 negative control well which have been dosed with a concentration of reference compound that will knockout the pAKT signal.
# Plates are incubated at 37° C. for 2 hours, cells are the fixed by the addition of 10 μl of a 3.7% Formaldehyde solution in a fume cupboard using a Wellmate.
# After 30 min to allow for fixation, the fixative and media are removed and the plates washed with Proclin PBS/A using Tecan PW384 plate washer in a fume cupboard. Wells are blocked and permeabilised with the addition of 40 μl of PBS containing 0.5% Tween20 and 1% marvel using a Wellmate and incubated for 60 min at room temperature.
# Permeabilisation and blocking buffer removed using Tecan PW384 plate washer, then 20 μl primary antibody solution added using a Wellmate. The primary antibody solution is a 1:500 dilution of Rabbit anti-phospho AKT Ser 473 (Cell signalling technologies catalogue number #3787) in PBS/T containing 1% marvel (dried milk powder) and incubated overnight at 4° C.
# Plates are washed using a Tecan PW384 plate washer three times with Phosphate Buffered Saline+0.05% (v/v) Polysorbate20 and Proclin300 (Supelco). 20 μl of secondary antibody solution is then added to each well using a Wellmate and incubated for 1 hour at Room Temp. The secondary antibody solution is a 1:1000 dilution of Alexa Fluor 488 anti-Rabbit (Molecular Probes cat no A11008) diluted in Phosphate Buffered Saline+0.05% (v/v) Polysorbate20 containing 1% marvel. Plates are washed three times as before then […] added to each well and plates sealed with black plate sealer.
# The plates are read on an Acumen reader as soon as possible. Using this system IC50 values can be generated and quality of plates determined by control wells. Reference compounds are run each time to monitor assay performance.
# [2] = Test (a), approximate value, read-out: IC50 versus PI3Kβ
# [3] = Test (a), human recombinant enzyme, ATP 8 μM, PIP2 80 μM, Table A, read-out: PI3Kβ inhibition, IC50
# [4] = approximate value, read-out: IC50 versus PI3Kδ
# [5] = human recombinant enzyme, Table A, read-out: PI3Kδ inhibition, IC50
# PI3Kβ, sequence (P42338 whole entry): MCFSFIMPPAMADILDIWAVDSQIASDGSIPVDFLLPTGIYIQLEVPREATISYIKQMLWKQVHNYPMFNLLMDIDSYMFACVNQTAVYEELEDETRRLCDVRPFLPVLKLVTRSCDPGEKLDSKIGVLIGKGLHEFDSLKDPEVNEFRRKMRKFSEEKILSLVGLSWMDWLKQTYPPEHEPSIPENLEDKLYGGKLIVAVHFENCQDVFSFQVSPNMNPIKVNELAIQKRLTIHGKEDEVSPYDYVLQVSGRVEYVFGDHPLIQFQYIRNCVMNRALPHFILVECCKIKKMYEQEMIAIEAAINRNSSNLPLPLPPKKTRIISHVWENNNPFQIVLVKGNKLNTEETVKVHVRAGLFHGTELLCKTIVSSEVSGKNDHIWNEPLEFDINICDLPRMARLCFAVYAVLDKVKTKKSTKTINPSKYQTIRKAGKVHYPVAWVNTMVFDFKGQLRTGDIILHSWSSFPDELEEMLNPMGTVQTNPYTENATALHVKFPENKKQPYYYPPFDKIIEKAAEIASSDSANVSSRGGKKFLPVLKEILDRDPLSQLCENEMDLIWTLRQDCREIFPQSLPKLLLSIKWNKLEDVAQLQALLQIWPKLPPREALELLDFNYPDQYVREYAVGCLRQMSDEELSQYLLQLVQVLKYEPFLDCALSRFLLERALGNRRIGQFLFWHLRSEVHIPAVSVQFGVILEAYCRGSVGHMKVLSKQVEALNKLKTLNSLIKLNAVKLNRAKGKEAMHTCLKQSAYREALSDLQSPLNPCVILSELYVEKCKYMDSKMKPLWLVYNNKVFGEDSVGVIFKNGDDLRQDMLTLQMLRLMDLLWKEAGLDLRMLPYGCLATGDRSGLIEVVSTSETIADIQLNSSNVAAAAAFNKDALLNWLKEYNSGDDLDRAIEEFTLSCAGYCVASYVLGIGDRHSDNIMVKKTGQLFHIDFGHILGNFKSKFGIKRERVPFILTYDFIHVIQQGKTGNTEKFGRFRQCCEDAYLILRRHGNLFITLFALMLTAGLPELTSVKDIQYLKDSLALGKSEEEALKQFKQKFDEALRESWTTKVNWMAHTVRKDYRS
# PI3Kβ, sequence (P27986 whole entry partner): as the sequence (P27986 whole entry partner) above
Compound,IC50 (PI3Kβ; [2]),IC50 (PI3Kβ; [3]),IC50 (PI3Kδ; [4]),IC50 (PI3Kδ; [5]),IC50 [1],IC50 (PI3Kβ; IC50 versus PI3Kβ)
"O=C(c1cc([C@H]2CCCN2c2cccc(F)c2)c2oc(N3CCOCC3)cc(=O)c2c1)N1CCC1 [Example 1.08, 6-(azetidine-1-carbonyl)-8-[(2R)-(1-(3-fluorophenyl)pyrrolidin-2-yl)]-2-morpholino-4H-chromen-4-one]",~6 nM,6 nM,~6 nM,6 nM,~2 nM,–
"CN(C)C(=O)c1cc(C2CCCN2c2cc(F)cc(F)c2)c2oc(N3CCOCC3)cc(=O)c2c1 (centres unmarked) [Example 1.00, 8-[1-(3,5-difluorophenyl)pyrrolidin-2-yl]-N,N-dimethyl-2-morpholino-4-oxo-4H-chromene-6-carboxamide]",–,–,–,15 nM,–,–
"CN1CCN(C(=O)c2cc([C@H]3CCCN3c3cc(F)cc(F)c3)c3oc(N4CCOCC4)cc(=O)c3c2)CC1 [Example 1.09, 8-[(2R)-(1-(3,5-difluorophenyl)pyrrolidin-2-yl)]-6-(4-methylpiperazine-1-carbonyl)-2-morpholino-4H-chromen-4-one]",–,–,–,14 nM,–,–
"CN1CCN(C(=O)c2cc([C@H]3CCCN3c3cccc(F)c3)c3oc(N4CCOCC4)cc(=O)c3c2)CC1 [Example 1.10, 8-[(2R)-(1-(3-fluorophenyl)pyrrolidin-2-yl)]-6-(4-methylpiperazine-1-carbonyl)-2-morpholino-4H-chromen-4-one]",~8 nM,8 nM,~21 nM,21 nM,~4 nM,–
"O=C(c1cc(C2CCCN2c2ccc(F)cc2)c2oc(N3CCOCC3)cc(=O)c2c1)N1CCOCC1 (racemic) [Example 1.12, 8-(1-(4-fluorophenyl)pyrrolidin-2-yl)-6-(morpholine-4-carbonyl)-2-morpholino-4H-chromen-4-one]",–,15 nM,–,32 nM,–,–
"O=C(c1cc([C@H]2CCCN2c2cccc(F)c2)c2oc(N3CCOCC3)cc(=O)c2c1)N1CCOCC1 [Example 1.07, 8-[(2R)-(1-(3-fluorophenyl)pyrrolidin-2-yl)]-6-(morpholine-4-carbonyl)-2-morpholino-4H-chromen-4-one]",–,6 nM,~5 nM,5 nM,~2 nM,~6 nM
"O=C(c1cc([C@H]2CCCN2c2cc(F)cc(F)c2)c2oc(N3CCOCC3)cc(=O)c2c1)N1CCC1 [Example 1.05, 6-(azetidine-1-carbonyl)-8-[(2R)-(1-(3,5-difluorophenyl)pyrrolidin-2-yl)]-2-morpholino-4H-chromen-4-one]",~7 nM,7 nM,~9 nM,9 nM,~1 nM,–
"CN(CCO)C(=O)c1cc(C2CCCN2c2cc(F)cc(F)c2)c2oc(N3CCOCC3)cc(=O)c2c1 (centres unmarked) [Example 1.01, 8-(1-(3,5-difluorophenyl)pyrrolidin-2-yl)-N-(2-hydroxyethyl)-N-methyl-2-morpholino-4-oxo-4H-chromene-6-carboxamide]",–,–,–,16 nM,–,–
"O=C(c1cc(C2CCCN2c2cc(F)cc(F)c2)c2oc(N3CCOCC3)cc(=O)c2c1)N1CC[S+]([O-])CC1 (centres unmarked) [Example 1.04, 8-[1-(3,5-difluorophenyl)pyrrolidin-2-yl]-2-morpholino-6-[(1-oxidothiomorpholin-4-yl)carbonyl]-4H-chromen-4-one]",~11 nM,11 nM,~24 nM,24 nM,~5 nM,–
"CN(C)C(=O)c1cc([C@H]2CCCN2c2cccc(F)c2)c2oc(N3CCOCC3)cc(=O)c2c1 [Example 1.06, 8-[(2R)-(1-(3-fluorophenyl)pyrrolidin-2-yl)]-N,N-dimethyl-2-morpholino-4-oxo-4H-chromene-6-carboxamide]",~7 nM,7 nM,~7 nM,7 nM,~1 nM,–
"COc1cccc(N2CCC[C@@H]2c2cc(C(=O)N3CCOCC3)cc3c(=O)cc(N4CCOCC4)oc23)c1 [Example 1.11, 8-[(2R)-(1-(3-methoxyphenyl)pyrrolidin-2-yl)]-6-(morpholine-4-carbonyl)-2-morpholino-4H-chromen-4-one]",~9 nM,9 nM,~15 nM,15 nM,~8 nM,–
"O=C(c1cc(C2CCCN2c2cc(F)cc(F)c2)c2oc(N3CCOCC3)cc(=O)c2c1)N1CCC(O)CC1 (centres unmarked) [Example 1.02, 8-(1-(3,5-difluorophenyl)pyrrolidin-2-yl)-6-(4-hydroxypiperidine-1-carbonyl)-2-morpholino-4H-chromen-4-one]",–,–,–,14 nM,–,–

# The next lines start with results.
IC50 (PI3Kβ; [2]),IC50 (PI3Kβ; [3]),IC50 (PI3Kδ; [4]),IC50 (PI3Kδ; [5]),IC50 [1],Compound,IC50 (PI3Kβ; IC50 versus PI3Kβ)
~10 nM,10 nM,~7 nM,7 nM,~1 nM,"C[C@@H]1CN(c2cc(=O)c3cc(C(=O)N(C)C)cc(C4CCCN4c4cccc(F)c4)c3o2)CCO1 (stereo partly drawn) [Example 3.03, 8-(1-(3-fluorophenyl)pyrrolidin-2-yl)-N,N-dimethyl-2-((R)-2-methylmorpholino)-4-oxo-4H-chromene-6-carboxamide]",–
~11 nM,11 nM,~18 nM,18 nM,~3 nM,"C[C@@H]1CN(c2cc(=O)c3cc(C(=O)N4CCOCC4)cc(C4CCCN4c4cc(F)cc(F)c4)c3o2)CCO1 (stereo partly drawn) [Example 3.00, 8-(1-(3,5-difluorophenyl)pyrrolidin-2-yl)-2-((R)-2-methylmorpholino)-6-(morpholine-4-carbonyl)-4H-chromen-4-one]",–
–,14 nM,–,15 nM,~6 nM,"C[C@@H]1CN(c2cc(=O)c3cc(C(=O)N4CCOCC4)cc(C4CCCN4c4ccccc4)c3o2)CCO1 (stereo partly drawn) [Example 3.01, 2-((R)-2-methylmorpholino)-6-(morpholine-4-carbonyl)-8-(1-phenylpyrrolidin-2-yl)-4H-chromen-4-one]",–
–,17 nM,–,19 nM,–,"CN(C)C(=O)c1cc(C2CCCN2c2ccc(F)cc2)c2oc(N3CCOCC3)cc(=O)c2c1 (racemic) [Example 2.04, 8-(1-(4-fluorophenyl)pyrrolidin-2-yl)-N,N-dimethyl-2-morpholino-4-oxo-4H-chromene-6-carboxamide]",–
–,10 nM,–,15 nM,–,"COc1cccc(N2CCCC2c2cc(C(=O)N(C)C)cc3c(=O)cc(N4CCOCC4)oc23)c1 (centres unmarked) [Example 2.01, 8-(1-(3-methoxyphenyl)pyrrolidin-2-yl)-N,N-dimethyl-2-morpholino-4-oxo-4H-chromene-6-carboxamide]",–
–,13 nM,–,16 nM,–,"CN(C)C(=O)c1cc(C2CCCN2c2cc(F)cc(C#N)c2)c2oc(N3CCOCC3)cc(=O)c2c1 (centres unmarked) [Example 2.02, 8-(1-(3-cyano-5-fluorophenyl)pyrrolidin-2-yl)-N,N-dimethyl-2-morpholino-4-oxo-4H-chromene-6-carboxamide]",–
~14 nM,14 nM,~10 nM,10 nM,~3 nM,"C[C@@H]1CN(c2cc(=O)c3cc(C(=O)N4CCOCC4)cc(C4CCCN4c4cccc(F)c4)c3o2)CCO1 (stereo partly drawn) [Example 3.02, 8-(1-(3-fluorophenyl)pyrrolidin-2-yl)-2-((R)-2-methylmorpholino)-6-(morpholine-4-carbonyl)-4H-chromen-4-one]",–

# Reference: patent publication US8530470B2, “Chromenone derivatives” (Astrazeneca AB, priority 2011, dated 2013)
